Experimental data: publication PMC5078040 (Oncotarget, 2016)

Key:
MKK7 = biological target: T1, MKK7 (Homo sapiens, UniProt O14733); experiment: KinomeScan; format: binding; settings: 1uM
T1 construct: purchased DiscoveRx KINOMEscan

TNIK = biological target: T2, TNIK (Homo sapiens, UniProt Q9UKE5); experiment: KinomeScan; format: binding; settings: 1uM
T2 construct: purchased DiscoveRx KINOMEscan

PIP5K2B = biological target: T3, PIP5K2B (Homo sapiens, UniProt P78356); experiment: KinomeScan; format: binding; settings: 1uM
T3 construct: purchased DiscoveRx KINOMEscan

[1] = biological target: T4, JAK3(JH1domain-catalytic) (Homo sapiens, UniProt P52333); experiment: KinomeScan; format: binding; settings: 1uM
T4 construct: JAK3(JH1domain-catalytic); purchased DiscoveRx KINOMEscan

LKB1 = biological target: T5, LKB1 (Homo sapiens, UniProt Q15831); experiment: KinomeScan; format: binding; settings: 1uM
T5 construct: purchased DiscoveRx KINOMEscan

STK16 = biological target: T6, STK16 (Homo sapiens, UniProt O75716); experiment: KinomeScan; format: binding; settings: 1uM
T6 construct: purchased DiscoveRx KINOMEscan

VRK2 = biological target: T7, VRK2 (Homo sapiens, UniProt Q86Y07); experiment: KinomeScan; format: binding; settings: 1uM
T7 construct: purchased DiscoveRx KINOMEscan

PRKCD = biological target: T8, PRKCD (Homo sapiens, UniProt Q05655); experiment: KinomeScan; format: binding; settings: 1uM
T8 construct: purchased DiscoveRx KINOMEscan
T8 sequence (Q05655 whole entry): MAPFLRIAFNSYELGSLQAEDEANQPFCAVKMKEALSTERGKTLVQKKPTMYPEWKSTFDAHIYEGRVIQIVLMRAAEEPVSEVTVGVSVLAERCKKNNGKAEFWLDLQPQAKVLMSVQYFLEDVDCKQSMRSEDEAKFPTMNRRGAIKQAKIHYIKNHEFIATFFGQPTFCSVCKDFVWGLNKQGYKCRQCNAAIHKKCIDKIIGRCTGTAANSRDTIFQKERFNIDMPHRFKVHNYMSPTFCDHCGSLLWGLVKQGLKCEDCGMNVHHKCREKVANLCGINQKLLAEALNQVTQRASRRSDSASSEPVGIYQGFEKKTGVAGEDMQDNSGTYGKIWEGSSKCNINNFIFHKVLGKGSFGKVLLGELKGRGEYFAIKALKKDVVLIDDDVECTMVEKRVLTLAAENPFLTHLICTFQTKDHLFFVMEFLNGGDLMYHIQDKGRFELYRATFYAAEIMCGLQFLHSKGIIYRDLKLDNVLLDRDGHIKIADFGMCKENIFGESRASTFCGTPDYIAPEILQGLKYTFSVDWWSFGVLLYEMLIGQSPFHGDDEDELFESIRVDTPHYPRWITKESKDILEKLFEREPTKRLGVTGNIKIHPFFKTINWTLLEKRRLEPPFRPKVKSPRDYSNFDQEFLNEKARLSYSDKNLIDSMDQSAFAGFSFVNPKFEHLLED

CAMK2G = biological target: T9, CAMK2G (Homo sapiens, UniProt Q13555); experiment: KinomeScan; format: binding; settings: 1uM
T9 construct: purchased DiscoveRx KINOMEscan

RET(M918T) = biological target: T10, RET(M918T) (Homo sapiens, UniProt P07949, M918T); experiment: KinomeScan; format: binding; settings: 1uM
T10 construct: purchased DiscoveRx KINOMEscan

AML patient primary cell = experiment: Anti-proliferative efficacy against patient primary cells; format: cell-based; settings: Homo sapiens
Experimental: Mononuclear cells were isolated from AML patients. Mononuclear cells were isolated by density gradient centrifugation through Ficoll-Plaque Plus (Amersham Pharmacia Biotech AB, Uppsala, Sweden) at 2000 rpm for 30 minutes, followed by two washes in 1X PBS. Freeze-thawed cells were then cultured in liquid culture (DMEM, supplemented with 20% FBS). All blood and bone marrow samples from AML patients were obtained through written consent under approval of the Dana Farber Cancer Institute Institutional Review Board. The ethics committees approved the consent procedure.
Cells were grown in 96-well culture plates (3000-4000/well). […] Cell proliferation was determined after treatment with compounds for 72 hours. Cell viability was measured using the CellTiter–Glo Assay Kit (Promega, USA), according to the manufacturer's instructions, and luminescence was measured in a multi-label reader (Envision, PerkinElmer, USA). Data were normalized to control groups (DMSO) and represented by the mean of three independent measurements with standard error <20%. GI50 values were calculated using Prism 5.0 (GraphPad Software, San Diego, CA).

DYRK1B = biological target: T11, DYRK1B (Homo sapiens, UniProt Q9Y463); experiment: KinomeScan; format: binding; settings: 1uM
T11 construct: purchased DiscoveRx KINOMEscan

YSK1 = biological target: T12, YSK1 (Homo sapiens, UniProt O00506); experiment: KinomeScan; format: binding; settings: 1uM
T12 construct: purchased DiscoveRx KINOMEscan

EPHA3 = biological target: T13, EPHA3 (Homo sapiens, UniProt P29320); experiment: KinomeScan; format: binding; settings: 1uM
T13 construct: purchased DiscoveRx KINOMEscan

PAK4 = biological target: T14, PAK4 (Homo sapiens, UniProt O96013); experiment: KinomeScan; format: binding; settings: 1uM
T14 construct: purchased DiscoveRx KINOMEscan

MLK1 = biological target: T15, MLK1 (Homo sapiens, UniProt P80192); experiment: KinomeScan; format: binding; settings: 1uM
T15 construct: purchased DiscoveRx KINOMEscan

PRKR = biological target: T16, PRKR (Homo sapiens, UniProt P19525); experiment: KinomeScan; format: binding; settings: 1uM
T16 construct: purchased DiscoveRx KINOMEscan

KIT(V559D,T670I) = biological target: T17, KIT(V559D,T670I) (Homo sapiens, UniProt P10721, T670I/V559D); experiment: KinomeScan; format: binding; settings: 1uM
T17 construct: purchased DiscoveRx KINOMEscan

MEK6 = biological target: T18, MEK6 (Homo sapiens, UniProt P52564); experiment: KinomeScan; format: binding; settings: 1uM
T18 construct: purchased DiscoveRx KINOMEscan
T18 sequence (P52564 whole entry): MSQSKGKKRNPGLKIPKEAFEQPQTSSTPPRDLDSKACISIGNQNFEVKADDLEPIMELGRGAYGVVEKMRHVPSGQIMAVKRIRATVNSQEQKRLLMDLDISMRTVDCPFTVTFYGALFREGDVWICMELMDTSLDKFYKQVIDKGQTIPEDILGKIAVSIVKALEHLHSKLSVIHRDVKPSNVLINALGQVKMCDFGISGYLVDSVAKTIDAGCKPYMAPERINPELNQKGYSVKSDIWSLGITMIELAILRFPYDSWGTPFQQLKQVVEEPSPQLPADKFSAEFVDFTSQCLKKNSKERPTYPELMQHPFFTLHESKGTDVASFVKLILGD

AKT1 = biological target: T19, AKT1 (Homo sapiens, UniProt P31749); experiment: KinomeScan; format: binding; settings: 1uM
T19 construct: purchased DiscoveRx KINOMEscan

ASK1 = biological target: T20, ASK1 (Homo sapiens, UniProt Q99683); experiment: KinomeScan; format: binding; settings: 1uM
T20 construct: purchased DiscoveRx KINOMEscan

FES = biological target: T21, FES (Homo sapiens, UniProt P07332); experiment: KinomeScan; format: binding; settings: 1uM
T21 construct: purchased DiscoveRx KINOMEscan
T21 sequence (P07332 whole entry): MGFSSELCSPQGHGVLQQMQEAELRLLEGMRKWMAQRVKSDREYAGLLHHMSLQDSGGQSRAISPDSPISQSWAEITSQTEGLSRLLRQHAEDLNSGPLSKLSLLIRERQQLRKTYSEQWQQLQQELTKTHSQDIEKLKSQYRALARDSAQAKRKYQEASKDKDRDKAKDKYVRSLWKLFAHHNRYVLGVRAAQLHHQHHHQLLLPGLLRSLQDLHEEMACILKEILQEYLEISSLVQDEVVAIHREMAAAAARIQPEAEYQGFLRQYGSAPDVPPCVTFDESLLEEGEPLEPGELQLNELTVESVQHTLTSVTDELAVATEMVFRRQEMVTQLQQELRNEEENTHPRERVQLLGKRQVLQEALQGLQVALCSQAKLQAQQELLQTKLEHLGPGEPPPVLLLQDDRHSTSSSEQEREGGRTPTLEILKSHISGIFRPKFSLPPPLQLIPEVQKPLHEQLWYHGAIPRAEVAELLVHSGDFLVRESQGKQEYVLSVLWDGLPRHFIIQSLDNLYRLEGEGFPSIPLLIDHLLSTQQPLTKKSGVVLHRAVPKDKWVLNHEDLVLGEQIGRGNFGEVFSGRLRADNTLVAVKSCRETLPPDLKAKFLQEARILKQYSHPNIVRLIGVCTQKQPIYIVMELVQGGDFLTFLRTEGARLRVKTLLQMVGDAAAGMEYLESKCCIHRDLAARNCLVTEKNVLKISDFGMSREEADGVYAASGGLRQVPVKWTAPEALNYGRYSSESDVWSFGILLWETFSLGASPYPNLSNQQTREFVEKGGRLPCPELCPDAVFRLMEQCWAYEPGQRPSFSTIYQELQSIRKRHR

ERBB3 = biological target: T22, ERBB3 (Homo sapiens, UniProt P21860); experiment: KinomeScan; format: binding; settings: 1uM
T22 construct: purchased DiscoveRx KINOMEscan
T22 sequence (P21860 20-1342): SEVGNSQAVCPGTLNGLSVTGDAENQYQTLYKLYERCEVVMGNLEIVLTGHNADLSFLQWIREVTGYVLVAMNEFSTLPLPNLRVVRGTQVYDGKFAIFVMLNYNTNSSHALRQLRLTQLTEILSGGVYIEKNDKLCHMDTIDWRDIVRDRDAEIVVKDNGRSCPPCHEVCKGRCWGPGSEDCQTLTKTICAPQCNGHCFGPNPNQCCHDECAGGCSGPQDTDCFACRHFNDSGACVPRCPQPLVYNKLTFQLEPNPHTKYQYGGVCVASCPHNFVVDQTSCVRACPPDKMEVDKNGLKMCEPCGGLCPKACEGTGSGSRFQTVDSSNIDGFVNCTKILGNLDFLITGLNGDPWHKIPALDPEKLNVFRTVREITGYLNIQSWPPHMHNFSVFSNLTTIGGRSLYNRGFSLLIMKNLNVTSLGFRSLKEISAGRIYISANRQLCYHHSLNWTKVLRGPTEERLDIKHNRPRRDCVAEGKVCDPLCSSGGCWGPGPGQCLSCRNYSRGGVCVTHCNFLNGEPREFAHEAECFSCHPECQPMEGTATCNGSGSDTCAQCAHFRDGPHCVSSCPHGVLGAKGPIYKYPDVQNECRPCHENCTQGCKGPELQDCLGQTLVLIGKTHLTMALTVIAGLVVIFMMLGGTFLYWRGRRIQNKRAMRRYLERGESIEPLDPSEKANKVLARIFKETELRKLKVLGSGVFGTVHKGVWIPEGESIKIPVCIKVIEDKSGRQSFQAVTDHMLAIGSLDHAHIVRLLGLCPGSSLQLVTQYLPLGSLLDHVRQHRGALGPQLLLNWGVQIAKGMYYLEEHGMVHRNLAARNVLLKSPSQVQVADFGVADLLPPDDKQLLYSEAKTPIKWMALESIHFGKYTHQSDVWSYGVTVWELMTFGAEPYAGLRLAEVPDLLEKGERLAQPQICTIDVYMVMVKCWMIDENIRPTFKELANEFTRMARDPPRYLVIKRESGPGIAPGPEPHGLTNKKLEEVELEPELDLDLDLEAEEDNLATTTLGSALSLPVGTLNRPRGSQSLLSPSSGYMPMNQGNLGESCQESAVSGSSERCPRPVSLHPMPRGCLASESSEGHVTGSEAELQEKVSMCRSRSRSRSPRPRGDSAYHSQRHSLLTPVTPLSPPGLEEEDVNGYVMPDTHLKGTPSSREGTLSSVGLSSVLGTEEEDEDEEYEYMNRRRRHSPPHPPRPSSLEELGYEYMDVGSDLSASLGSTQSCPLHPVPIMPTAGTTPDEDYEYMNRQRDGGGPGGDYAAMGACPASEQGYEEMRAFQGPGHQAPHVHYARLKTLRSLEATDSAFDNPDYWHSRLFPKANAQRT

CAMK2A = biological target: T23, CAMK2A (Homo sapiens, UniProt Q9UQM7); experiment: KinomeScan; format: binding; settings: 1uM
T23 construct: purchased DiscoveRx KINOMEscan

MET = biological target: T24, MET (Homo sapiens, UniProt P08581); experiment: KinomeScan; format: binding; settings: 1uM
T24 construct: purchased DiscoveRx KINOMEscan

TEC = biological target: T25, TEC (Homo sapiens, UniProt P42680); experiment: KinomeScan; format: binding; settings: 1uM
T25 construct: purchased DiscoveRx KINOMEscan

PRKG1 = biological target: T26, PRKG1 (Homo sapiens, UniProt Q13976); experiment: KinomeScan; format: binding; settings: 1uM
T26 construct: purchased DiscoveRx KINOMEscan

BMPR2 = biological target: T27, BMPR2 (Homo sapiens, UniProt Q13873); experiment: KinomeScan; format: binding; settings: 1uM
T27 construct: purchased DiscoveRx KINOMEscan

DAPK3 = biological target: T28, DAPK3 (Homo sapiens, UniProt O43293); experiment: KinomeScan; format: binding; settings: 1uM
T28 construct: purchased DiscoveRx KINOMEscan

TGFBR1 = biological target: T29, TGFBR1 (Homo sapiens, UniProt P36897); experiment: KinomeScan; format: binding; settings: 1uM
T29 construct: purchased DiscoveRx KINOMEscan

IKK-alpha = biological target: T30, IKK-alpha (Homo sapiens, UniProt O15111); experiment: KinomeScan; format: binding; settings: 1uM
T30 construct: purchased DiscoveRx KINOMEscan

ROCK1 = biological target: T31, ROCK1 (Homo sapiens, UniProt Q13464); experiment: KinomeScan; format: binding; settings: 1uM
T31 construct: purchased DiscoveRx KINOMEscan

CDC2L2 = biological target: T32, CDC2L2 (Homo sapiens, UniProt Q9UQ88); experiment: KinomeScan; format: binding; settings: 1uM
T32 construct: purchased DiscoveRx KINOMEscan

PIK3CA = biological target: T33, PIK3CA (Homo sapiens, UniProt P42336); experiment: KinomeScan; format: binding; settings: 1uM
T33 construct: purchased DiscoveRx KINOMEscan
T33 sequence (P42336 whole entry): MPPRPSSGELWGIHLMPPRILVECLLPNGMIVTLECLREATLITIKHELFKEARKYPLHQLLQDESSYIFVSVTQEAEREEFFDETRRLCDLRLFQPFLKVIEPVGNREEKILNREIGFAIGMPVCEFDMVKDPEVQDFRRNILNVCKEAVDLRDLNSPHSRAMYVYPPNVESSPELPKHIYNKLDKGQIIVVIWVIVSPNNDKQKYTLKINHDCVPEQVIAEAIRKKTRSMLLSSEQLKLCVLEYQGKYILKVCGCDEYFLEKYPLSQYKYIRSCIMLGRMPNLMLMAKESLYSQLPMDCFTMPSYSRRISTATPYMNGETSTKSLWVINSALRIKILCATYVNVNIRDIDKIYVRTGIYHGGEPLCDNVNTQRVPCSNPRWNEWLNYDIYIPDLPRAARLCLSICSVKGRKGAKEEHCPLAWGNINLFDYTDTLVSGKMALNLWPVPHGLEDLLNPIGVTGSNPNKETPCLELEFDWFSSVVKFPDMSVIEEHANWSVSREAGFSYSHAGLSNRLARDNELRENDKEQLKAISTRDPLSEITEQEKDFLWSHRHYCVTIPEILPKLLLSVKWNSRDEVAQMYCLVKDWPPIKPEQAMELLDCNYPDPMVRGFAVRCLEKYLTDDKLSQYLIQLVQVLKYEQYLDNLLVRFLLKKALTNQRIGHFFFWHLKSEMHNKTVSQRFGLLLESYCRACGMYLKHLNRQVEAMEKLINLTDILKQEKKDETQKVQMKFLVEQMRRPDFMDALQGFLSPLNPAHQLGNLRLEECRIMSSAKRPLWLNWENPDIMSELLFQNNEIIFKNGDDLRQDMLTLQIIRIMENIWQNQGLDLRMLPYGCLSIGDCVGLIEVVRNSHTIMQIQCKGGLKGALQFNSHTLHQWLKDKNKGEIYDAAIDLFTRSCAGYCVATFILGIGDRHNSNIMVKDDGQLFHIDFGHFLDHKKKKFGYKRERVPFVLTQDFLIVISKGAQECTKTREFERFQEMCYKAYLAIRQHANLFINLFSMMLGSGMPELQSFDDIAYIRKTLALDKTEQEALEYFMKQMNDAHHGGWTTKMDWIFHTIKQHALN

EGFR(S752-I759del) = biological target: T34, EGFR(S752-I759del) (Homo sapiens, UniProt P00533, DEL752-759); experiment: KinomeScan; format: binding; settings: 1uM
T34 construct: purchased DiscoveRx KINOMEscan

ZAK = biological target: T35, ZAK (Homo sapiens, UniProt Q9NYL2); experiment: KinomeScan; format: binding; settings: 1uM
T35 construct: purchased DiscoveRx KINOMEscan
T35 sequence (Q9NYL2 whole entry): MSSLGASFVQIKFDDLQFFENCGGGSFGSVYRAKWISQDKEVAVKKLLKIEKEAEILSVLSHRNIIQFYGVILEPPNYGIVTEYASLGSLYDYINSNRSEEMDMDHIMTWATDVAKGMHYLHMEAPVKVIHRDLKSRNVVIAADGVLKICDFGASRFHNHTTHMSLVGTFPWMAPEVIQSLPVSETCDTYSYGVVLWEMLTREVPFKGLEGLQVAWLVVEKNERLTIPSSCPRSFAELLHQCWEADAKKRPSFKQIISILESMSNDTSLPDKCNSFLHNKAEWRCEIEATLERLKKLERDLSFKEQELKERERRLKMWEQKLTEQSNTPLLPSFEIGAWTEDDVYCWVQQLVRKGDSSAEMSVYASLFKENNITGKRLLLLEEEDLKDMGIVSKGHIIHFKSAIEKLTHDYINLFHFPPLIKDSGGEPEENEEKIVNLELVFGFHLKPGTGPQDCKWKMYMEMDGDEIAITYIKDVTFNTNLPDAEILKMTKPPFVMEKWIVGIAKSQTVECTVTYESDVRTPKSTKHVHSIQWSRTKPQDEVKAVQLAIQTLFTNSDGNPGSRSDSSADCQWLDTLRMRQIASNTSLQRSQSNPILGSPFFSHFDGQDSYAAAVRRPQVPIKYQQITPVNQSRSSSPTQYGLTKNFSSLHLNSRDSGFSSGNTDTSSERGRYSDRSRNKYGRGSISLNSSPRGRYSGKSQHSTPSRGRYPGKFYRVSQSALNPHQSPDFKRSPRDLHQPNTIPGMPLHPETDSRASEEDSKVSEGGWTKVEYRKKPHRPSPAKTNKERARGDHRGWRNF

Cc1nc(NC(=O)[C@@H](N)C(C)C)sc1-c1cnc(Cl)c(NS(=O)(=O)c2ccccc2)c1 [PI3KD-IN-015]
KinomeScan MKK7 (MKK7): 98 | KinomeScan TNIK (TNIK): 95 | KinomeScan PIP5K2B (PIP5K2B): 100 | KinomeScan JAK3(JH1domain-catalytic) [1]: 98 | KinomeScan LKB1 (LKB1): 79 | KinomeScan STK16 (STK16): 91 | KinomeScan VRK2 (VRK2): 91 | KinomeScan PRKCD (PRKCD): 100 | KinomeScan CAMK2G (CAMK2G): 100 | KinomeScan RET(M918T) (RET(M918T)): 95 | GI50 (AML patient primary cell; AML1, patient primary cell AML1): 1.83 µM | GI50 (AML patient primary cell; AML3, patient primary cell AML3): 9.2 µM | GI50 (AML patient primary cell; most of AML patient cells): < 10 µM | GI50 (AML patient primary cell; patient primary cell AML2): 0.85 µM | GI50 (AML patient primary cell; patient primary cell AML4): 2.8 µM | GI50 (AML patient primary cell; patient primary cell AML5): 6.3 µM | GI50 (AML patient primary cell; patient primary cell AML6): > 10 µM | KinomeScan DYRK1B (DYRK1B): 100 | KinomeScan YSK1 (YSK1): 100 | KinomeScan EPHA3 (EPHA3): 86 | KinomeScan PAK4 (PAK4): 100 | KinomeScan MLK1 (MLK1): 100 | KinomeScan PRKR (PRKR): 100 | KinomeScan KIT(V559D,T670I) (KIT(V559D,T670I)): 90 | KinomeScan MEK6 (MEK6): 100 | KinomeScan AKT1 (AKT1): 91 | KinomeScan ASK1 (ASK1): 88 | KinomeScan FES (FES): 100 | KinomeScan ERBB3 (ERBB3): 100 | KinomeScan CAMK2A (CAMK2A): 94 | KinomeScan MET (MET): 100 | KinomeScan TEC (TEC): 100 | KinomeScan PRKG1 (PRKG1): 89 | KinomeScan BMPR2 (BMPR2): 96 | KinomeScan DAPK3 (DAPK3): 91 | KinomeScan TGFBR1 (TGFBR1): 97 | KinomeScan IKK-alpha (IKK-alpha): 95 | KinomeScan ROCK1 (ROCK1): 100 | KinomeScan CDC2L2 (CDC2L2): 100 | KinomeScan PIK3CA (PIK3CA): 7.2 | KinomeScan EGFR(S752-I759del) (EGFR(S752-I759del)): 100 | KinomeScan ZAK (ZAK): 100
